Measurements reported in PubChem BioAssay AID2060609 (Molecular Pharmacology Branch, DTP, NCI, 2025).
Several values for one entry are separate records, joined by “and”; a condition that tells them apart may be missing. Identical values can stand only once. Values belong to the compound of their own block, whether it stands above or below them.

System: 855422-203-R-J1-PDC complex spheroids, viability
Test: Anticancer human tumor 855422-203-R-J1-PDC patient-derived bladder carcinoma cell line growth inhibition [CLK]
Conditions: for viability, T/C: stronger effect = lower value
Summary of the method: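 Patient-derived tumor cells grown as complex spheroids with HUVEC endothelial cells and mesenchymal stem cells, treated with drug combinations. Concentrations descend in half-log steps from near clinical Cmax, or from 10 microM if Cmax unknown.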

[1] = curve of first compound, second compound 0.0316 µM
[2] = curve of first compound, second compound 0.1 µM
[3] = curve of first compound, second compound 0.316 µM
[4] = curve of first compound, second compound 1 µM
[5] = curve of first compound, second compound 3.16 µM
[6] = curve of first compound, second compound 10 µM
[7] = second compound 0.0316 µM, first compound 0.0316 µM
[8] = second compound 0.0316 µM, first compound 0.1 µM
[9] = second compound 0.0316 µM, first compound 0.316 µM
[10] = second compound 0.0316 µM, first compound 1 µM
[11] = second compound 0.0316 µM, first compound 3.16 µM
[12] = second compound 0.0316 µM, first compound 10 µM
[13] = second compound 0.1 µM, first compound 0.0316 µM
[14] = second compound 0.1 µM, first compound 0.1 µM
[15] = second compound 0.1 µM, first compound 0.316 µM
[16] = second compound 0.1 µM, first compound 1 µM
[17] = second compound 0.1 µM, first compound 3.16 µM
[18] = second compound 0.1 µM, first compound 10 µM
[19] = second compound 0.316 µM, first compound 0.0316 µM
[20] = second compound 0.316 µM, first compound 0.1 µM
[21] = second compound 0.316 µM, first compound 0.316 µM
[22] = second compound 0.316 µM, first compound 1 µM
[23] = second compound 0.316 µM, first compound 3.16 µM
[24] = second compound 0.316 µM, first compound 10 µM
[25] = second compound 1 µM, first compound 0.0316 µM
[26] = second compound 1 µM, first compound 0.1 µM
[27] = second compound 1 µM, first compound 0.316 µM
[28] = second compound 1 µM, first compound 1 µM
[29] = second compound 1 µM, first compound 3.16 µM
[30] = second compound 1 µM, first compound 10 µM
[31] = second compound 3.16 µM, first compound 0.0316 µM
[32] = second compound 3.16 µM, first compound 0.1 µM
[33] = second compound 3.16 µM, first compound 0.316 µM
[34] = second compound 3.16 µM, first compound 1 µM
[35] = second compound 3.16 µM, first compound 3.16 µM
[36] = second compound 3.16 µM, first compound 10 µM
[37] = second compound 10 µM, first compound 0.0316 µM
[38] = second compound 10 µM, first compound 0.1 µM
[39] = second compound 10 µM, first compound 0.316 µM
[40] = second compound 10 µM, first compound 1 µM
[41] = second compound 10 µM, first compound 3.16 µM
[42] = second compound 10 µM, first compound 10 µM
[43] = second compound 0.0316 µM, first compound 0.00316 µM
[44] = second compound 0.0316 µM, first compound 0.01 µM
[45] = second compound 0.1 µM, first compound 0.00316 µM
[46] = second compound 0.1 µM, first compound 0.01 µM
[47] = second compound 0.316 µM, first compound 0.00316 µM
[48] = second compound 0.316 µM, first compound 0.01 µM
[49] = second compound 1 µM, first compound 0.00316 µM
[50] = second compound 1 µM, first compound 0.01 µM
[51] = second compound 3.16 µM, first compound 0.00316 µM
[52] = second compound 3.16 µM, first compound 0.01 µM
[53] = second compound 10 µM, first compound 0.00316 µM
[54] = second compound 10 µM, first compound 0.01 µM
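Note: spheroids exposed to drugs for seven days before readout.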
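Throughout, for viability, T/C: 100% = DMSO vehicle control wells.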

IC50 [1]: > 10000 nM
IC50 [2]: 3540 nM
IC50 [3]: < 31.6 nM
IC50 [4]: < 31.6 nM
IC50 [5]: < 31.6 nM
IC50 [6]: < 31.6 nM
SMILES: CC(CO)NC(=O)c1cc(-c2ccc(Cl)cc2)nn(-c2cnn(C)c2)c1=O (stereo not drawn) + CNC(=O)c1ccc(Nc2nc(OC3CCCC3)c3c(-c4ccc5nc(C)oc5c4)c[nH]c3n2)c(OC)c1
viability, T/C [7]: 99%
viability, T/C [8]: 78.6%
viability, T/C [9]: 87.3%
viability, T/C [10]: 95%
viability, T/C [11]: 96%
viability, T/C [12]: 80.9%
viability, T/C [13]: 50.1%
viability, T/C [14]: 50.6%
viability, T/C [15]: 55%
viability, T/C [16]: 63%
viability, T/C [17]: 46%
viability, T/C [18]: 42.5%
viability, T/C [19]: 23%
viability, T/C [20]: 21.9%
viability, T/C [21]: 22.9%
viability, T/C [22]: 22.4%
viability, T/C [23]: 20.8%
viability, T/C [24]: 21.8%
viability, T/C [25]: 18.8%
viability, T/C [26]: 19.7%
viability, T/C [27]: 19.8%
viability, T/C [28]: 20.7%
viability, T/C [29]: 20.5%
viability, T/C [30]: 21%
viability, T/C [31]: 24.3%
viability, T/C [32]: 20.9%
viability, T/C [33]: 22.7%
viability, T/C [34]: 22.2%
viability, T/C [35]: 22.3%
viability, T/C [36]: 20%
viability, T/C [37]: 16.7%
viability, T/C [38]: 21.2%
viability, T/C [39]: 22.2%
viability, T/C [40]: 20.5%
viability, T/C [41]: 19.9%
viability, T/C [42]: 20%

IC50 (curve of compound): > 10000 nM
SMILES: O=C(c1cc(Cc2n[nH]c(=O)c3ccccc23)ccc1F)N1CCN(C(=O)C2CC2)CC1
viability, T/C (compound 0.0316 µM): 118% and 121%
viability, T/C (compound 0.1 µM): 91.3% and 115%
viability, T/C (compound 0.316 µM): 110% and 104%
viability, T/C (compound 1 µM): 112% and 120%
viability, T/C (compound 3.16 µM): 119% and 130%
viability, T/C (compound 10 µM): 101% and 138%

IC50 [1]: 3.92 nM
IC50 [2]: < 3.16 nM
IC50 [3]: < 3.16 nM
IC50 [4]: < 3.16 nM
IC50 [5]: < 3.16 nM
IC50 [6]: < 3.16 nM
SMILES: CCc1c2c(nc3ccc(O)cc13)-c1cc3c(c(=O)n1C2)COC(=O)[C@]3(O)CC + CNC(=O)c1ccc(Nc2nc(OC3CCCC3)c3c(-c4ccc5nc(C)oc5c4)c[nH]c3n2)c(OC)c1
viability, T/C [43]: 58.1%
viability, T/C [44]: 14.6%
viability, T/C [7]: 10.3%
viability, T/C [8]: 4.46%
viability, T/C [9]: 2.37%
viability, T/C [10]: 2.42%
viability, T/C [45]: 31.4%
viability, T/C [46]: 13.2%
viability, T/C [13]: 8.17%
viability, T/C [14]: 3.32%
viability, T/C [15]: 2.65%
viability, T/C [16]: 1.46%
viability, T/C [47]: 18.2%
viability, T/C [48]: 11.9%
viability, T/C [19]: 6.3%
viability, T/C [20]: 3.66%
viability, T/C [21]: 2.03%
viability, T/C [22]: 3.09%
viability, T/C [49]: 17.7%
viability, T/C [50]: 10.2%
viability, T/C [25]: 7.3%
viability, T/C [26]: 4.22%
viability, T/C [27]: 2.1%
viability, T/C [28]: 1.8%
viability, T/C [51]: 17.8%
viability, T/C [52]: 12.4%
viability, T/C [31]: 7.84%
viability, T/C [32]: 3.73%
viability, T/C [33]: 2.41%
viability, T/C [34]: 1.27%
viability, T/C [53]: 13.8%
viability, T/C [54]: 11.1%
viability, T/C [37]: 7.08%
viability, T/C [38]: 5.03%
viability, T/C [39]: 3.52%
viability, T/C [40]: 1.51%

SMILES: CCN1CCN(Cc2ccc(Nc3ncc(F)c(-c4cc(F)c5nc(C)n(C(C)C)c5c4)n3)nc2)CC1 + CN1CCN(c2cc(C(=O)Nc3cc4cc(-c5cnn(C)c5)ccc4cn3)ccn2)CC1
IC50 [1]: 262 nM
IC50 [2]: 158 nM
IC50 [3]: < 3.16 nM
IC50 [4]: < 3.16 nM
IC50 [5]: < 3.16 nM
IC50 [6]: < 3.16 nM
viability, T/C [43]: 82.8%
viability, T/C [44]: 97.1%
viability, T/C [7]: 87.7%
viability, T/C [8]: 56.2%
viability, T/C [9]: 54.6%
viability, T/C [10]: 42.9%
viability, T/C [45]: 66.3%
viability, T/C [46]: 72.4%
viability, T/C [13]: 76.2%
viability, T/C [14]: 59.9%
viability, T/C [15]: 34.8%
viability, T/C [16]: 30.4%
viability, T/C [47]: 7.42%
viability, T/C [48]: 10.2%
viability, T/C [19]: 14.1%
viability, T/C [20]: 13.1%
viability, T/C [21]: 18%
viability, T/C [22]: 14.3%
viability, T/C [49]: 0.35%
viability, T/C [50]: 0.82%
viability, T/C [25]: 1.18%
viability, T/C [26]: 0.5%
viability, T/C [27]: 0.97%
viability, T/C [28]: 1.71%
viability, T/C [51]: 0.55%
viability, T/C [52]: 1.57%
viability, T/C [31]: 0.95%
viability, T/C [32]: 0.83%
viability, T/C [33]: 2.86%
viability, T/C [34]: 2.68%
viability, T/C [53]: 0.5%
viability, T/C [54]: 0.53%
viability, T/C [37]: 0.3%
viability, T/C [38]: 0.46%
viability, T/C [39]: 0.64%
viability, T/C [40]: 0.65%

IC50 (compound alone, run of 07/31/2023): 181 nM [middle of 9 runs]
SMILES: CN1CCN(c2cc(C(=O)Nc3cc4cc(-c5cnn(C)c5)ccc4cn3)ccn2)CC1
viability, T/C (compound 0.1 µM): 94% [middle of 12 runs]
viability, T/C (compound 0.316 µM): 9.83% [middle of 12 runs]
viability, T/C (compound 1 µM): 0.34% [middle of 11 runs]
viability, T/C (compound 3.16 µM): 0.57% [middle of 11 runs]
viability, T/C (compound 10 µM): 0.34% [middle of 11 runs]

IC50 (curve of compound): < 31.6 nM
SMILES: Nc1ccn(C2OC(CO)C(O)C2(F)F)c(=O)n1 (stereo not drawn)
viability, T/C (compound 0.0316 µM): 26.9% and 25.7%
viability, T/C (compound 0.1 µM): 16.5% and 10.8%
viability, T/C (compound 0.316 µM): 17.8% and 15.2%
viability, T/C (compound 1 µM): 15.7% and 11.5%
viability, T/C (compound 3.16 µM): 11.1% and 9.45%
viability, T/C (compound 10 µM): 7.67% and 6.64%

IC50 [1]: 7390 nM
IC50 [2]: > 10000 nM
IC50 [3]: < 31.6 nM
IC50 [4]: < 31.6 nM
IC50 [5]: < 31.6 nM
IC50 [6]: < 31.6 nM
SMILES: COC1C=CCC(C)C(C)S(=O)(=O)NC(=O)c2ccc3c(c2)N(CC2CCC21)CC1(CCCc2cc(Cl)ccc21)CO3 (stereo not drawn) + CNC(=O)c1ccc(Nc2nc(OC3CCCC3)c3c(-c4ccc5nc(C)oc5c4)c[nH]c3n2)c(OC)c1
viability, T/C [7]: 96%
viability, T/C [8]: 105%
viability, T/C [9]: 122%
viability, T/C [10]: 132%
viability, T/C [11]: 151%
viability, T/C [12]: 24.7%
viability, T/C [13]: 53.6%
viability, T/C [14]: 63.6%
viability, T/C [15]: 54.1%
viability, T/C [16]: 77.3%
viability, T/C [17]: 105%
viability, T/C [18]: 33.3%
viability, T/C [19]: 20%
viability, T/C [20]: 23.7%
viability, T/C [21]: 20.7%
viability, T/C [22]: 17.2%
viability, T/C [23]: 34.1%
viability, T/C [24]: 22%
viability, T/C [25]: 19.8%
viability, T/C [26]: 17.3%
viability, T/C [27]: 18.2%
viability, T/C [28]: 19.5%
viability, T/C [29]: 21.9%
viability, T/C [30]: 29%
viability, T/C [31]: 15.8%
viability, T/C [32]: 18.1%
viability, T/C [33]: 16.4%
viability, T/C [34]: 15.1%
viability, T/C [35]: 20.8%
viability, T/C [36]: 23.3%
viability, T/C [37]: 17.7%
viability, T/C [38]: 18.6%
viability, T/C [39]: 17.9%
viability, T/C [40]: 17.4%
viability, T/C [41]: 17.9%
viability, T/C [42]: 23.3%
